In patent US6677368B2, “4-aryl substituted indolinones” (Sugen, Inc., priority 2000, dated 2004) one finds IC50 data, which are given here for eleven compounds.

Holding throughout (format): biochemical
For assay [1], the target named is FGFR3 (Homo sapiens, UniProt P22607). As to the kind of experiment: FGFR3 kinase inhibition.
Assay [2] addresses T1, SRC (Homo sapiens, UniProt P12931).
T1 construct: purchased UBI 14-117
As to the kind of experiment: Src transphosphorylation assay. The conditions noted are these: recombinant human Src, poly(Glu-Tyr) substrate. The procedure: Src Transphosphorylation Assay
This assay is used to screen for inhibitors of the tyrosine kinase Src.
1. Coating buffer: PBS containing sodium azide (0.2 mg/ml).
3. Wash buffer: PBS containing 0.05% v/v Tween 20 (PBS-TWEEN)
5. ATP (40 [M)+MgCl2 (80 mM) in distilled water.
6. MgCl2 (80 mM) in distilled water (for no ATP blanks).
7. Test compounds, 10 mM in DMSO.
8. Assay Buffer: 100 mM HEPES, pH 7.4, containing 2 mM DTT, 0.2 mM sodium orthovanadate and 0.2 mgs/ml BSA.
9. Partially purified recombinant human Src (UBI (14-117)
10. Anti-phosphotyrosine (SUGEN rabbit polyclonal anti-PY).
11. HRP-linked goat anti-rabbit Ig (Biosource International #6430)
12. HRP substrate ABTS or Pierce Peroxidase substrate.
13. Corning ELISA plates.
1. Coat plates with 100 μl of 20 μg/ml poly(Glu-Tyr) (Sigma Cat. No.P0275) containing 0.01% sodium azide. Hold overnight at 4° C.
2. Block with 1% BSA at 100 μl/well for one hour at room temperature.
3. Plate test compounds (10 mM in DMSO) at 2 ul/well on a Costar plate ready for dilution with dH2O and plating to reaction plates.
4. Dilute Src kinase 1:10,000 in Reaction Buffer, for 5 plates prepare 25 ml as follows: 2.5 mls 1M HEPES pH7.4 (stored sterile at 4° C.), 21.85 ml distilled water, 0.1 ml 5% BSA, 0.5 ml 10 mM sodium orthovanadate (stored sterile at 4° C.), 50 μl 1.0M DTT (stored frozen at […]), and 2.5 μl Src Kinase (stored frozen at −80° C.).
5. Add 48 μl of distilled water to the 2 ∥l of each compound in the dilution plate then add 25 μl/well of this to the reaction plate.
6. Add 50 μl of […] to each reaction buffer well and then 25 μl ATP-MgCl2/well (MgCl2 only to no ATP blanks). Incubate at room temperature for 15 minutes on plate shaker. Stop reaction by adding 25 μl of 0.5M EDTA to each well.
7. Wash 4× with PBS-TWEEN.
8. […] Incubate with continuous shaking at room temperature for one hour.
9. Wash plates 4× with PBS-TWEEN.
10. Add 100 μl HPP-linked Ig (1:5,000) in PBS-TWEEN containing 0.5% BSA, 0.025% Non-fat milk powder, 100 μM sodium orthovanadate. Incubate with shaking at room temperature for one hour.
11. Wash plates 4× with PBS-TWEEN and then once with PBS.
12. Develop plate using ABTS or other peroxidase substrate.

The target in assay [3] is T2, MET (Homo sapiens, UniProt P08581).
T2 construct: Purified GST fusion protein containing the Met kinase domain, SUGEN, Inc
T2 sequence (P08581 1078-1345 limits assumed): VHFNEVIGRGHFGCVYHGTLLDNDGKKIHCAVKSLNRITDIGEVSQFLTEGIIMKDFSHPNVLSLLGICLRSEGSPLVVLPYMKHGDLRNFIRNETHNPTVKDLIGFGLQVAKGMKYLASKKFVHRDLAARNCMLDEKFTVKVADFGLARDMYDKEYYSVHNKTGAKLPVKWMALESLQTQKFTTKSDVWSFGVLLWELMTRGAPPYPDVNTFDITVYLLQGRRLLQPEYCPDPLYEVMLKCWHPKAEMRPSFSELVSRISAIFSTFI
As to the kind of experiment: MET transphosphorylation assay. The conditions noted are these: GST fusion protein containing the Met kinase domain, poly(glu-tyr) substrate. How it is done: MET TRANSPHOSPHORYLATION ASSAY
This assay is used to measure phosphotyrosine levels on a poly(glutamic acid:tyrosine, 4:1) substrate as a means for identifying agonists/antagonists of met transphosphorylation of the substrate.
1. Corning 96-well ELISA plates, Corning Catalog #25805-96.
2. Poly(glu-tyr), 4:1, Sigma, Cat. No; P 0275.
5. Blocking Buffer: Dissolve 25 g Bovine Serum Albumin, Sigma Cat. No A-7888, in 500 ml PBS, filter through a […] filter.
6. Purified GST fusion protein containing the Met kinase domain, SUGEN, Inc.
8. 10% aqueous (MilliQue H2O) DMSO.
9. 10 mM aqueous (dH2O) Adenosine-5′-triphosphate, Sigma Cat. No. A-5394.
10. 2×Kinase Dilution Buffer: for 100 ml, mix 10 mL 1M HEPES at pH 7.5 with 0.4 mL 5% BSA/PBS, 0.2 mL 0.1 M sodium orthovanadate and 1 mL 5M sodium chloride in 88.4 mL dH2O.
11. 4×ATP Reaction Mixture: for 10 mL, mix 0.4 mL 1 M manganese chloride and 0.02 mL 0.1 M ATP in 9.56 mL dH2O.
12. 4×Negative Controls Mixture: for 10 mL, mix 0.4 mL 1 M manganese chloride in 9.6 mL dH2O.
13. NUNC 96-well V bottom polypropylene plates, Applied Scientific Catalog #S-72092
15. Antibody Dilution Buffer: for 100 mL, mix 10 mL 5% BSA/PBS, 0.5 mL 5% Carnation® Instant Milk in PBS and 0.1 mL 0.1 M sodium orthovanadate in 88.4 mL TBST.
16. Rabbit polyclonal antophosphotyrosine antibody, SUGEN, Inc.
17. Goat anti-rabbit horseradish peroxidase conjugated antibody, Biosource, Inc.
18. ABTS Solution: for 1 L, mix 19.21 g citric acid, 35.49 g Na2HPO4 and 500 mg ABTS with sufficient dH2O to make 1 L.
19. ABTS/H2O2: mix 15 mL ABST solution with 2μL H2O2 five minutes before use.
1. Coat ELISA plates with 2 μg Poly(Glu-Tyr) in 100 μL PBS, hold overnight at 4° C.
2. Block plate with 150 μL of 5% BSA/PBS for 60 min.
3. Wash plate twice with PBS then once with 50 mM Hepes buffer pH 7.4.
4. Add 50 μl of the diluted kinase to all wells. (Purified kinase is diluted with Kinase Dilution Buffer. Final concentration should be 10 ng/well.)
5. Add 25 μL of the test compound (in 4% DMSO) or DMSO alone (4% in dH2O) for controls to plate.
6. Incubate the kinase/compound mixture for 15 minutes.
7. Add 25 μL of 40 mM MnCl2 to the negative control wells.
8. Add 25 μL ATP/MnCl2 mixture to the all other wells (except the negative controls). Incubate for 5 min.
9. Add 25 μL 500 mM EDTA to stop reaction.
10. Wash plate 3× with TBST.
11. Add 100 μL rabbit polyclonal anti-Ptyr diluted 1:10,000 in Antibody Dilution Buffer to each well. Incubate, with shaking, at room temperature for one hour.
12. Wash plate 3× with TBST.
13. Dilute Biosource HRP conjugated anti-rabbit antibody 1:6,000 in Antibody Dilution buffer. Add 100 μL per well and incubate at room temperature, with shaking, for one hour.
14. Wash plate 1× with PBS.
15. Add 100 μl of ABTS/H2O2 solution to each well.
16. If necessary, stop the development reaction with the addition of 100 μl of 0.2M HCl per well.
17. Read plate on Dynatech MR7000 ELISA reader with the test filter at 410 nM and the reference filter at 630 nM.

Assay [4] deals with P38 (Homo sapiens, UniProt Q16539). As to the kind of experiment: P38 kinase inhibition.
Chain of P38 (Q16539 whole entry): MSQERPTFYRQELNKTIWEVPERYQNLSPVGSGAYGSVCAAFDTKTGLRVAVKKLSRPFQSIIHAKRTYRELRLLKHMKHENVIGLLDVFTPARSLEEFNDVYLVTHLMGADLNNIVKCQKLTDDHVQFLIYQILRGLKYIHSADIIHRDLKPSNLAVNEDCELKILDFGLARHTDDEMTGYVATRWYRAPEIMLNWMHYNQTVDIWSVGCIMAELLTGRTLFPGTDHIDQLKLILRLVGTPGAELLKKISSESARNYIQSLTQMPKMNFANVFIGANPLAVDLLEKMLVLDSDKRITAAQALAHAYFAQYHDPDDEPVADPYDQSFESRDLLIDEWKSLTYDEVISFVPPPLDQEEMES

In general, IC50 refers to the midpoint of a concentration-inhibition curve.

Chain of FGFR3 (P22607 23-806, species assumed): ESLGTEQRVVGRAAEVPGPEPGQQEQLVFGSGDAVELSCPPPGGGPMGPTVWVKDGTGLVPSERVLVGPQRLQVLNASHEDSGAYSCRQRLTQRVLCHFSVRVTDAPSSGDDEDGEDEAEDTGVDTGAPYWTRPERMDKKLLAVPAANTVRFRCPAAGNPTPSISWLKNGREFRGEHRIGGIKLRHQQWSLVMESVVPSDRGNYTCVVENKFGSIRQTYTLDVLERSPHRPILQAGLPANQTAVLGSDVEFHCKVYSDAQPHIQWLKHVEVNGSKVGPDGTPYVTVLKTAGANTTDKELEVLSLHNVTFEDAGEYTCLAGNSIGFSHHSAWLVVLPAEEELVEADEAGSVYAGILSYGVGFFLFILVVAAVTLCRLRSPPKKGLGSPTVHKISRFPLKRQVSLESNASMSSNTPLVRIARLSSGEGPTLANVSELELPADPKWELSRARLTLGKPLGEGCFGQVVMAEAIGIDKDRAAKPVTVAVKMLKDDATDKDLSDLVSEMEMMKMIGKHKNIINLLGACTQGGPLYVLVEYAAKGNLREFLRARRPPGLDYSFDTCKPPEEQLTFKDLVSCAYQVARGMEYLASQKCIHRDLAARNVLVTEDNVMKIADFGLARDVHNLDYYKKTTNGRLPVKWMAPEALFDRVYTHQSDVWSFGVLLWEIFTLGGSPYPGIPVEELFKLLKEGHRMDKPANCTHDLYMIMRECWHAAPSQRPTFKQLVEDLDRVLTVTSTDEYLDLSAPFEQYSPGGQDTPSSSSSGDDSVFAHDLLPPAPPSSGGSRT
T1 sequence (P12931 whole entry): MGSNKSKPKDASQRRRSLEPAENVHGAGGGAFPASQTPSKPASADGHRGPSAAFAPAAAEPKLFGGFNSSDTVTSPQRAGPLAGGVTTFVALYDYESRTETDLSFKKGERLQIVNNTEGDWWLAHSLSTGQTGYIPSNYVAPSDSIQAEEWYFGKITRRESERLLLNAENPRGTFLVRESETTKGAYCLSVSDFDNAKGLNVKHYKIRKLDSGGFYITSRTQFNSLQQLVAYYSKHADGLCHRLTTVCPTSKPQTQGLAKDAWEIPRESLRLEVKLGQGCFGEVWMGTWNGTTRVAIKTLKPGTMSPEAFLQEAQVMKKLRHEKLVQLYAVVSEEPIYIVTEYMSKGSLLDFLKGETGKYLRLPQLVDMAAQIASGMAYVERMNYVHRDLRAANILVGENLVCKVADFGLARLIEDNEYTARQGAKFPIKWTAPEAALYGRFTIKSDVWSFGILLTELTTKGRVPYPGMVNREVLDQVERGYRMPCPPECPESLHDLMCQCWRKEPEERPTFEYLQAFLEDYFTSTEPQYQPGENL

In the case of `Cc1cc(C(=O)N2C[C@@H](C)N[C@@H](C)C2)c(/C=C2\C(=O)Nc3cccc(-c4cccc(Cl)c4)c32)[nH]1` [Example 35, 4-(3-Chloro-phenyl)-3-[3-((cis)-3,5-dimethyl-piperazine-1-carbonyl)-5-methyl-1H-pyrrol-2-ylmethylene]-1,3-dihydro-indol-2-one], the IC50 is 1990 nM in assay [1], 9720 nM in assay [2], 340 nM in assay [3] and over 10000 nM in assay [4].
For the compound `COc1ccc(-c2cccc3c2/C(=C/c2[nH]c(C)c(C(=O)N4C[C@@H](C)N[C@@H](C)C4)c2C)C(=O)N3)cc1` [Example 40, 3-[4-((cis)-3,5-Dimethyl-piperazine-1-carbonyl)-3,5-dimethyl-1H-pyrrol-2-ylmethylene]-4-(4-methoxy-phenyl)-1,3-dihydro-indol-2-one], the half-inhibitory concentration (IC50) was 380 nM in assay [1], 6570 nM in assay [2], 270 nM in assay [3] and over 10000 nM in assay [4].
On to `COc1ccc(-c2cccc3c2/C(=C/c2[nH]c(C)cc2C(=O)NCCN2CCCC2)C(=O)N3)cc1` [Example 41, 2-[4-(4-Methoxy-phenyl)-2-oxo-1,2-dihydro-indol-3-ylidenemethyl]-5-methyl-1H-pyrrole-3-carboxylic Acid (2-Pyrrolidin-1-yl-ethyl)-amide], for which the IC50 is 790 nM in assay [1], 5420 nM in assay [2], 320 nM in assay [3] and over 10000 nM in assay [4].
On to `CCOC(=O)c1c(C)[nH]c(/C=C2\C(=O)Nc3cccc(-c4cccc(F)c4)c32)c1CCCN1CCN(C)CC1` [Example 18, 5-[4-(3-Fluoro-phenyl)-2-oxo-1,2-dihydro-indol-3-ylidenemethyl]-2-methyl-4-[3-(4-methyl-piperazin-1-yl)-propyl]-1H-pyrrole-3-carboxylic Acid Ethyl Ester], for which the 50% inhibitory concentration (IC50) in assay [1] was determined as 350 nM; in assay [2], 7810 nM; in assay [3], 270 nM; in assay [4] it was 9500 nM.
As for `Cc1[nH]c(/C=C2\C(=O)Nc3cccc(-c4ccc(Br)cc4)c32)c(C)c1C(=O)NCCN(C(C)C)C(C)C` [Example 60, 5-[4-(4-Bromo-phenyl)-2-oxo-1,2-dihydro-indol-3-ylidenemethyl]-2,4-dimethyl-1H-pyrrole-3-carboxylic Acid (2-Diisopropylamino-ethyl)-amide], the 50% inhibitory concentration (IC50) in assay [1] came to 550 nM; in assay [2], 2010 nM; in assay [3], 250 nM; in assay [4], 7900 nM.
For `Cc1[nH]c(/C=C2\C(=O)Nc3cccc(-c4cccc(F)c4)c32)c(C)c1C(=O)NCCn1ccnn1` [Example 15, 5-[4-(3-Fluoro-phenyl)-2-oxo-1,2-dihydro-indol-3-ylidenemethyl]-2,4-dimethyl-1H-pyrrole-3-carboxylic Acid (2-[1,2,3]Triazol-1-yl-ethyl)-amide] the same measures were 72 nM, 2270 nM, 370 nM and 4900 nM.
For `Cc1[nH]c(/C=C2\C(=O)Nc3cccc(-c4ccc(Cl)cc4)c32)c(C)c1C(=O)N1CCN(C)CC1` [Example 20, 4-(4-Chloro-phenyl)-3-[3,5-dimethyl-4-(4-methyl-piperazine-1-carbonyl)-1H-pyrrol-2-ylmethylene]-1,3-dihydro-indol-2-one] the same measures were 1290 nM, 10400 nM, 520 nM and over 10000 nM.
Regarding `CCN(CC)CCNC(=O)c1c(C)[nH]c(/C=C2\C(=O)Nc3cccc(-c4cccc(F)c4)c32)c1C` [Example 13, 5-[4-(3-Fluoro-phenyl)-2-oxo-1,2-dihydro-indol-3-ylidenemethyl]-2,4-dimethyl-1H-pyrrole-3-carboxylic Acid (2-Diethylamino-ethyl)-amide], the concentration for half-maximal inhibition (IC50) in assay [1] is 21 nM; in assay [2] it was 1050 nM; in assay [3] it was 100 nM; in assay [4], over 10000 nM.
Consider `CCN(CC)CCNC(=O)c1c(C)[nH]c(/C=C2\C(=O)Nc3cccc(-c4cccc(OC)c4)c32)c1C` [Example 46, 5-[4-(3-Methoxy-phenyl)-2-oxo-1,2-dihydro-indol-3-ylidenemethyl]-2,4-dimethyl-1H-pyrrole-3-carboxylic Acid (2-Diethylamino-ethyl)-amide], for which the concentration for half-maximal inhibition (IC50) in assay [1] was 9 nM; in assay [2], 660 nM; in assay [3], 120 nM; in assay [4] it was over 10000 nM.
Regarding `CCN(CC)CCNC(=O)c1c(C)[nH]c(/C=C2\C(=O)Nc3cccc(-c4cccc(Br)c4)c32)c1C` [Example 63, 5-[4-(3-Bromo-phenyl)-2-oxo-1,2-dihydro-indol-3-ylidenemethyl]-2,4-dimethyl-1H-pyrrole-3-carboxylic Acid (2-Diethylamino-ethyl)-amide], the figures for the IC50 in assay [1], in assay [2] and in assay [3] were 94 nM, 1140 nM and 43 nM, respectively.
On to `Cc1cc(C(=O)NCCn2ccnn2)c(/C=C2\C(=O)Nc3cccc(-c4cccc(Cl)c4)c32)[nH]1` [Example 34, 2-[4-(3-Chloro-phenyl)-2-oxo-1,2-dihydro-indol-3-ylidenemethyl]-5-methyl-1H-pyrrole-3-carboxylic Acid (2-[1,2,3]Triazol-1-yl-ethyl)-amide], for which the IC50 in assay [1] is 940 nM; in assay [2] it was 7260 nM; in assay [3] it was 130 nM; in assay [4], over 10000 nM.
